Legend:
Helicoverpa armigera = tested on: Helicoverpa armigera; design: method as in PMID 17685437; details: pyrethroids with a polyfluorobenzyl group instead of the phenoxybenzyl group; ref [48]; cited from earlier work
Ae. aegypti = assay: WHO adult susceptibility test on field samples, Ae. aegypti; assay type: in vivo, Aedes aegypti; details: standard diagnostic doses
Excerpt: The analyses conducted using data from An. gambiae (s.l.) samples were repeated using data from the An. funestus subgroup, An. arabiensis, An. coluzzii, An. funestus and An. gambiae samples (Additional file 2). The same approach was also used for susceptibility test data from Aedes albopictus and Ae. aegypti to investigate whether the same relationships could be detected in these vectors of arboviruses, as detailed in Additional file 3.
Additional File 3: Cross-resistance to pyrethroids within wild populations of Aedes vectors […]
If structural diversity within the pyrethroids is also associated with divergence in resistance within the Aedes vectors of arboviruses, this would lend weight to the findings for malaria vectors presented in the main manusc ript. Like the Anopheles vectors, target-site mutations and metabolic resistance are thought to be the main resistance mechanisms in Aedes mosquitoes. At least ten mutations in the Aedes aegypti Vgsc gene have been identified and the most widespread mutation, […]
mutations and is also associated with DDT resistance. More recently, the V1016G mutation has been found in Ae. albopictus in Viet Nam and Italy, and both this allele and the F1534C and F1534S […]
expression of cytochrome P450s has also been implicated in pyrethroid resistance within Aedes mosquitoes and there is evidence that metabolic resistance can confer cross -resistance to multiple pyrethroids. For example, over-expression of CYP9J28 is associated with metabolic resistance to […]
target site- and P450-mediated resistance in Ae. aegypti strains found variation in resistance to seven pyrethroids and hypothesised that some patterns of resistance could be linked to structural differences, but also noted that general conclusions are challenging to make without a greater number of compounds with a single modification to compare. No studies of structure activity relationships using a wide range of pyrethroids and P450s from Aedes mosquitoes have been conducted to-date, but data on resistance in wild populations are available. A wider range of pyrethroids are more typically tested by studies of resistance in Aedes vectors, compared to Anopheles vectors, although these studies are also more varied in terms of diagnostic dose, bioass ay method and life cycle stage, making comparisons across studies difficult. Here we selected studies that used a common experimental design and investigated correlations in resistance to pairs of pyrethroids mirroring part of the work on Anopheles vectors presented in the main manuscript.
We identified all instances within a public insecticide resistance database where an Aedes field sample had been subdivided among tests for different pyrethroids. We then identified the most commonly used bioassay type across the new pyrethroid dataset, which was the WHO adult susceptibility test as described for malaria vectors, and the most commonly used diagnostic dose for […]
each compound (Table S2). […]
removed. Paired results were then extracted, and the mean values for the Pearson’s correlation coefficient were calculated for each pyrethroid pair using 1,000 bootstaps in SPSS Statistics v25.
Table S5. Diagnostic doses and data volumes for each pyrethroid.
Pyrethroid Most common dose Number of data points
The number of data points available for each pyrethroid from an Ae. aegypti sample that was used to test at least one other pyrethroid, using standard WHO susceptibility tests and standard diagnostic doses, is given.

Anopheles sinensis = tested on: Anopheles sinensis; design: method as in PMID 24159535; details: resistance ratios using LC50 values from a susceptible strain; most susceptible to bifenthrin, cyfluthrin and etofenprox, in that order; ref [55]; cited from earlier work
Gambiae Complex = details: ID 100156; F0, larval collection, 5/2009-4/2010, Chano, Ethiopia; WHO Bioassay 1998; ref Massebo F et al. Parasites Vectors. 2013;6; cited from earlier work
[1] = tested on: An. funestus strain, FUMOZ-R; design: method as in PMID 26930058; details: strain with upregulated P450 levels without any target-site mutations; ref [47]; cited from earlier work

Cc1c(F)c(F)c(COC(=O)[C@@H]2[C@H](/C=C(\Cl)C(F)(F)F)C2(C)C)c(F)c1F (racemic) [tefluthrin]
effect on cross-resistance, in words (Helicoverpa armigera): overcame most of this resistance

CC1(C)C(C=C(Cl)Cl)C1C(=O)OC(C#N)c1ccc(F)c(Oc2ccccc2)c1 (stereo not drawn) [cyfluthrin]
Mean percent mortality (SE) (Ae. aegypti; Pair 2 cyfluthrin vs etofenprox, N 22 paired Ae. aegypti samples): 87.78 (3.56) percent | Mean percent mortality (SE) (Ae. aegypti; Pair 5 permethrin vs cyfluthrin, N 79 paired Ae. aegypti samples): 89.27 (1.61) percent | Mean percent mortality (SE) (Ae. aegypti; Pair 7 λ-cyhalothrin vs cyfluthrin, N 25 paired Ae. aegypti samples): 85.01 (3.81) percent | Mean percent mortality (SE) (Ae. aegypti; Pair 10 deltamethrin vs cyfluthrin, N 72 paired Ae. aegypti samples): 88.58 (1.73) percent | susceptibility of larvae, rank in words (Anopheles sinensis): most susceptible | mortality (Gambiae Complex): 50

CC1(C)[C@H](C=C(Cl)Cl)[C@H]1C(=O)OCc1c(F)c(F)cc(F)c1F [transfluthrin]
effectiveness with or without piperonyl butoxide (PBO), in words [1]: effective in the absence of the generic P450 inhibitor | effect on cross-resistance, in words (Helicoverpa armigera): overcame most of this resistance

Reference: paper PMC7893915, “Assessing cross-resistance within the pyrethroids in terms of their interactions with key cytochrome P450 enzymes and resistance in vector populations” (Parasites & Vectors, 2021)
